From BindingDB's records for patent US10030020 (ABIDE THERAPEUTICS, INC., 2018)

Target: T1, Monoacylglycerol lipase ABHD6 (Mus musculus, UniProt Q8R2Y0)
T1 sequence (Q8R2Y0 whole entry): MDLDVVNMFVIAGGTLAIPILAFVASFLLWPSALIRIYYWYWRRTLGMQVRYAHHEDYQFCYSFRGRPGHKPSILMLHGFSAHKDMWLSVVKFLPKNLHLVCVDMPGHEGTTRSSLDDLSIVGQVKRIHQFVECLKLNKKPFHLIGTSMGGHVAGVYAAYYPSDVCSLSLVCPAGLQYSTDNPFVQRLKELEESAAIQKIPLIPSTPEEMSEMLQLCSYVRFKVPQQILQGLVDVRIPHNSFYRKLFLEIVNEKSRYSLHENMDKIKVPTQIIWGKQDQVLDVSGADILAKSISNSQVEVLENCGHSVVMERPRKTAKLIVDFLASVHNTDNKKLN
Test: In Vitro Competitive Activity-Based Protein Profiling
Protocol: Proteomes (mouse brain membrane fraction or cell lysates) (50 μL, 1.0 mg/mL total protein concentration) were preincubated with varying concentrations of inhibitors at 37° C. After 30 min, FP Rh (1.0 μL, 50 μM in DMSO) was added and the mixture was incubated for another 30 min at 37° C. Reactions were quenched with SDS loading buffer (50 μL-4×) and run on SDS-PAGE.

- IC50: > 1 µM
Compound: O=C(OC(C(F)(F)F)C(F)(F)F)N1CCC2(CCCN2Cc2ccc(OCCN3CCOCC3)cc2)CC1 [US10030020, Example 14]
